# Measurements from patent US20160304970A1, “GENE BIOMARKER TO DIAGNOSE METASTIC LIVER CANCER AND METHODS FOR TARGETING THE SAME” (University of Southern California, priority 2015, published 2016).
# Several values for one entry are separate records, joined by “and”; a condition that tells them apart may be missing. Identical values can stand only once.
# Assays:
# CD133 (+) Huh7 cells [1] = experiment: CD133 cell viability screening (luminescence, CellTiter-Glo); format: cell-based; settings: Homo sapiens, Huh-7
# Method: CD133(+) and CD133(−) Huh7 cells were freshly sorted using the MACS CD133 micro bead kit (Miltenyi Biotec, 130-050-801) and were seeded in 100 μl medium containing 5000 cells per well in a 96-well plate. Once the cells attached, the FDA approved drug library was added to each well to a final concentration of 20 μg/ml in duplicate. After incubation for 48 hours, the cell viability was determined by a luminescence assay. […] After 16 hours, 1 μl of a […] drug solution was individually added to the 96 wells, resulting in a 20 μg/ml final concentration for most compounds. After 48 hours, CellTiter-Glo® Reagent (G8233, Promega) was added and the luminescence signal was measured with an automated plate reader. The raw data for each well was background-corrected by DMSO control wells on the same plate.
# Freshly sorted CD133 (+) Huh7 or mouse TICs were plated in 100 μl of medium containing 5000 cells per well in a 96-well plate. After 16 hours, 0.5 μl of a 2 μg/ml, 1 μg/ml, 0.2 μg/ml, 0.1 μg/ml, 0.02 μg/ml, or 0.01 μg/ml compound was added to each well in triplicate, resulting in a 10 μg/ml, 5 μg/ml, 1 μg/ml, 0.5 μg/ml, 0.1 μg/ml, and 0.05 μg/ml final concentration for most compounds, respectively. After 48 hours, the cells were either measured for cell viability by Cell-Glo® Reagent (Promega), or fixed with 1% PFA (paraformaldehyde) and stained with DAPI for high-throughput screening.
# CD133 (+) Huh7 cells [2] = experiment: Tumor spheroid formation assay; format: cell-based, human; settings: CD133 (+) group; ATRA 5 μg/ml, SAHA 0.5 μg/ml; 2 weeks
# Method: Freshly sorted CD133(+)/(−) Huh7 cells were plated in a low binding culture plate (NUNC 145397) containing 100 cells per well in 100 μl of culture medium with ATRA (5 μg/ml), SAHA (0.5 μg/ml), or a combination of both. After 2 weeks, colony numbers were counted.
# patient-derived TICs = experiment: Subcutaneous xenograft of patient-derived TICs in NSG mice; format: in vivo, mouse; settings: no SAHA, i.p.
# Method: To establish prognostic biomarkers for the best combination chemotherapy, five different patient-derived TICs were tested for responses as xenografts in NSG mice for the best combination chemotherapy based on mutation/transcriptome subtypes. Anti-tumorigenic ability by ATRA+SAHA targeting TICs encapsulated with SAHA was validated (Table 3). […] As placebo treatment, solvent (DMSO) in an equal total volume (0.2 ml/mouse) was injected. Tumor growth kinetics was studied. Combination of ATRA with SAHA further inhibited the self-renewal abilities of TICs in vivo (FIG. 17E).
structure (smiles),measurement,setting,value
"CC1=C(/C=C/C(C)=C/C=C/C(C)=C/C(=O)O)C(C)(C)CCC1 [ATRA, all-trans retinoic acid]",viability at 20 µg/mL,"CD133 (+) Huh7 cells [1]; 20 μg/ml, 48 hours",41.4%
same,IC50,"CD133 (+) Huh7 cells [1]; CD133 killing effect, FIG. 44A",4.06 µg/mL and 13.5 µM
same,"reduction of colony numbers, tumor spheroid formation",CD133 (+) Huh7 cells [2],83%
same,"anti-tumorigenic ability, % (animals/total)",patient-derived TICs; ATRA 100 mg/m^2/day,22% (7/32)
same,"anti-tumorigenic ability, % (animals/total)",patient-derived TICs; ATRA 150 mg/m^2/day,19% (6/32)
